Assay: molar heat capacity at constant volume; xn = mol fraction of the nth substance listed
Conditions: x1 = 0.2607

N [ammonia] + O
Conditions | molar heat capacity at constant volume [J/K/mol]
508.07 K, Fluid (supercritical or subcritical phases), Mass density=671.23 kg/m3, isochoric heat capacity | 68.25
508.07 K, Liquid, Isochoric heat capacity | 68.25
508.26 K, Fluid (supercritical or subcritical phases), Mass density=671.23 kg/m3, isochoric heat capacity | 68.14
508.36 K, Fluid (supercritical or subcritical phases), Mass density=671.23 kg/m3, isochoric heat capacity | 68.37
508.45 K, Fluid (supercritical or subcritical phases), Mass density=671.23 kg/m3, isochoric heat capacity | 67.54
508.54 K, Fluid (supercritical or subcritical phases), Mass density=671.23 kg/m3, isochoric heat capacity | 67.61
508.64 K, Fluid (supercritical or subcritical phases), Mass density=671.23 kg/m3, isochoric heat capacity | 67.18
509.01 K, Fluid (supercritical or subcritical phases), Mass density=671.23 kg/m3, isochoric heat capacity | 68.48
509.11 K, Fluid (supercritical or subcritical phases), Mass density=671.23 kg/m3, isochoric heat capacity | 67.7
509.3 K, Fluid (supercritical or subcritical phases), Mass density=671.23 kg/m3, isochoric heat capacity | 67.89
509.39 K, Fluid (supercritical or subcritical phases), Mass density=671.23 kg/m3, isochoric heat capacity | 66.74
509.67 K, Fluid (supercritical or subcritical phases), Mass density=671.23 kg/m3, isochoric heat capacity | 67.09
513.42 K, Fluid (supercritical or subcritical phases), Mass density=671.23 kg/m3, isochoric heat capacity | 65.53
513.61 K, Fluid (supercritical or subcritical phases), Mass density=671.23 kg/m3, isochoric heat capacity | 65.05
513.8 K, Fluid (supercritical or subcritical phases), Mass density=671.23 kg/m3, isochoric heat capacity | 65.6
516.88 K, Fluid (supercritical or subcritical phases), Mass density=671.23 kg/m3, isochoric heat capacity | 63.54
517.07 K, Fluid (supercritical or subcritical phases), Mass density=671.23 kg/m3, isochoric heat capacity | 63.15
517.26 K, Fluid (supercritical or subcritical phases), Mass density=671.23 kg/m3, isochoric heat capacity | 63.06
517.44 K, Fluid (supercritical or subcritical phases), Mass density=671.23 kg/m3, isochoric heat capacity | 63.27
517.63 K, Fluid (supercritical or subcritical phases), Mass density=671.23 kg/m3, isochoric heat capacity | 62.44
517.82 K, Fluid (supercritical or subcritical phases), Mass density=671.23 kg/m3, isochoric heat capacity | 63.49
519.77 K, Fluid (supercritical or subcritical phases), Mass density=649.65 kg/m3, isochoric heat capacity | 68.81
519.77 K, Liquid, Isochoric heat capacity | 68.81
519.87 K, Fluid (supercritical or subcritical phases), Mass density=649.65 kg/m3, isochoric heat capacity | 68.23
520.05 K, Fluid (supercritical or subcritical phases), Mass density=649.65 kg/m3, isochoric heat capacity | 65.99
520.14 K, Fluid (supercritical or subcritical phases), Mass density=649.65 kg/m3, isochoric heat capacity | 66.91
520.24 K, Fluid (supercritical or subcritical phases), Mass density=649.65 kg/m3, isochoric heat capacity | 67.27
520.33 K, Fluid (supercritical or subcritical phases), Mass density=649.65 kg/m3, isochoric heat capacity | 64.87
520.42 K, Fluid (supercritical or subcritical phases), Mass density=649.65 kg/m3, isochoric heat capacity | 66.63
520.52 K, Fluid (supercritical or subcritical phases), Mass density=649.65 kg/m3, isochoric heat capacity | 67.09
520.79 K, Fluid (supercritical or subcritical phases), Mass density=649.65 kg/m3, isochoric heat capacity | 65.87
520.98 K, Fluid (supercritical or subcritical phases), Mass density=649.65 kg/m3, isochoric heat capacity | 65.39
521.17 K, Fluid (supercritical or subcritical phases), Mass density=649.65 kg/m3, isochoric heat capacity | 66.9
521.35 K, Fluid (supercritical or subcritical phases), Mass density=649.65 kg/m3, isochoric heat capacity | 66.72
521.45 K, Fluid (supercritical or subcritical phases), Mass density=649.65 kg/m3, isochoric heat capacity | 66.06
521.54 K, Fluid (supercritical or subcritical phases), Mass density=649.65 kg/m3, isochoric heat capacity | 65.81
526.45 K, Fluid (supercritical or subcritical phases), Mass density=649.65 kg/m3, isochoric heat capacity | 63.84
526.64 K, Fluid (supercritical or subcritical phases), Mass density=649.65 kg/m3, isochoric heat capacity | 63.74
526.82 K, Fluid (supercritical or subcritical phases), Mass density=649.65 kg/m3, isochoric heat capacity | 63.43
527.01 K, Fluid (supercritical or subcritical phases), Mass density=649.65 kg/m3, isochoric heat capacity | 63.65
527.19 K, Fluid (supercritical or subcritical phases), Mass density=649.65 kg/m3, isochoric heat capacity | 62.83
527.28 K, Fluid (supercritical or subcritical phases), Mass density=649.65 kg/m3, isochoric heat capacity | 63.36
545.62 K, Fluid (supercritical or subcritical phases), Mass density=594.32 kg/m3, isochoric heat capacity | 71.3
545.62 K, Liquid, Isochoric heat capacity | 71.3
545.71 K, Fluid (supercritical or subcritical phases), Mass density=594.32 kg/m3, isochoric heat capacity | 69.65
545.8 K, Fluid (supercritical or subcritical phases), Mass density=594.32 kg/m3, isochoric heat capacity | 69.15
546.08 K, Fluid (supercritical or subcritical phases), Mass density=594.32 kg/m3, isochoric heat capacity | 68.46
546.17 K, Fluid (supercritical or subcritical phases), Mass density=594.32 kg/m3, isochoric heat capacity | 67.48
546.35 K, Fluid (supercritical or subcritical phases), Mass density=594.32 kg/m3, isochoric heat capacity | 68.48
546.62 K, Fluid (supercritical or subcritical phases), Mass density=594.32 kg/m3, isochoric heat capacity | 67.15
546.71 K, Fluid (supercritical or subcritical phases), Mass density=594.32 kg/m3, isochoric heat capacity | 66.47
547.07 K, Fluid (supercritical or subcritical phases), Mass density=594.32 kg/m3, isochoric heat capacity | 65.62
547.17 K, Fluid (supercritical or subcritical phases), Mass density=594.32 kg/m3, isochoric heat capacity | 66.33
547.5 K, Fluid (supercritical or subcritical phases), Mass density=594.32 kg/m3, isochoric heat capacity | 65.53
547.79 K, Fluid (supercritical or subcritical phases), Mass density=594.32 kg/m3, isochoric heat capacity | 65.46
547.98 K, Fluid (supercritical or subcritical phases), Mass density=594.32 kg/m3, isochoric heat capacity | 63.91
549.8 K, Fluid (supercritical or subcritical phases), Mass density=594.32 kg/m3, isochoric heat capacity | 63.77
549.98 K, Fluid (supercritical or subcritical phases), Mass density=594.32 kg/m3, isochoric heat capacity | 62.97
550.07 K, Fluid (supercritical or subcritical phases), Mass density=594.32 kg/m3, isochoric heat capacity | 63.74
550.16 K, Fluid (supercritical or subcritical phases), Mass density=594.32 kg/m3, isochoric heat capacity | 63.45
550.34 K, Fluid (supercritical or subcritical phases), Mass density=594.32 kg/m3, isochoric heat capacity | 63.56
561.03 K, Fluid (supercritical or subcritical phases), Mass density=552.58 kg/m3, isochoric heat capacity | 73.2
561.03 K, Liquid, Isochoric heat capacity | 73.2
561.19 K, Fluid (supercritical or subcritical phases), Mass density=552.58 kg/m3, isochoric heat capacity | 70.73
561.25 K, Fluid (supercritical or subcritical phases), Mass density=552.58 kg/m3, isochoric heat capacity | 66.7
561.34 K, Fluid (supercritical or subcritical phases), Mass density=552.58 kg/m3, isochoric heat capacity | 64.8
561.52 K, Fluid (supercritical or subcritical phases), Mass density=552.58 kg/m3, isochoric heat capacity | 64.06
561.61 K, Fluid (supercritical or subcritical phases), Mass density=552.58 kg/m3, isochoric heat capacity | 62.44
561.7 K, Fluid (supercritical or subcritical phases), Mass density=552.58 kg/m3, isochoric heat capacity | 64.39
561.88 K, Fluid (supercritical or subcritical phases), Mass density=552.58 kg/m3, isochoric heat capacity | 63.24
561.97 K, Fluid (supercritical or subcritical phases), Mass density=552.58 kg/m3, isochoric heat capacity | 62.79
562.06 K, Fluid (supercritical or subcritical phases), Mass density=552.58 kg/m3, isochoric heat capacity | 61.43
565.36 K, Liquid, Isochoric heat capacity | 73.52
580.18 K, Fluid (supercritical or subcritical phases), Mass density=476.25 kg/m3, isochoric heat capacity | 77.25
580.18 K, Liquid, Isochoric heat capacity | 77.25
580.21 K, Fluid (supercritical or subcritical phases), Mass density=476.25 kg/m3, isochoric heat capacity | 73.61
580.3 K, Fluid (supercritical or subcritical phases), Mass density=476.25 kg/m3, isochoric heat capacity | 69.74
580.56 K, Fluid (supercritical or subcritical phases), Mass density=476.25 kg/m3, isochoric heat capacity | 68.42
580.74 K, Fluid (supercritical or subcritical phases), Mass density=476.25 kg/m3, isochoric heat capacity | 68.46
580.92 K, Fluid (supercritical or subcritical phases), Mass density=476.25 kg/m3, isochoric heat capacity | 67.84
581.01 K, Fluid (supercritical or subcritical phases), Mass density=476.25 kg/m3, isochoric heat capacity | 68.48

From the NIST ThermoML archive (doi:10.1007/s10765-009-0602-6)
